Values quoted from earlier work in patent US12245592B2, “Encapsulated biocides and biorepellents” (Aerogel ApS, priority 2018, dated 2025).

Settings: pure biocide

Row | Compound | Biocide density [gr/cm^3]
1 | N#C[S][Cu][S]C#N [Copper thiocyanate] | 2.84
2 | On1ccccc1=S.On1ccccc1=S.[Cu] [Copper pyrithione, copper pyrithione] | 1.82
3 | N#Cc1c(-c2ccc(Cl)cc2)[nH]c(C(F)(F)F)c1Br [Econea, 4-bromo-2-(4-chlorophenyl)-5-(trifluoromethyl)-1H-pyrrole-3-carbonitrile] | 1.71
4 | Zinc pyrithione | 1.78
